Results on 37 compounds are retold here after patent US6881741B2 (ViroChem Pharma Inc., priority 2001, dated 2005).

SMILES strings stand for the structures. Read-outs that look alike come from different tables or passages of the source.

This experiment concerns the target recombinant HCV NS5B (HCV RNA-dependent RNA polymerase) (Hepatitis C virus genotype 1b, UniProt P26663). The experiment is described as follows: biochemical.
Setting [1] is: HCV polymerase activity, list of compounds of Example 27, read-out: IC50 (polymerase activity).
Setting [2] is: related polymerase activity (Example 27 list), read-out: IC50.

recombinant HCV NS5B (HCV RNA-dependent RNA polymerase), sequence (P26663 2420-3010 limits assumed): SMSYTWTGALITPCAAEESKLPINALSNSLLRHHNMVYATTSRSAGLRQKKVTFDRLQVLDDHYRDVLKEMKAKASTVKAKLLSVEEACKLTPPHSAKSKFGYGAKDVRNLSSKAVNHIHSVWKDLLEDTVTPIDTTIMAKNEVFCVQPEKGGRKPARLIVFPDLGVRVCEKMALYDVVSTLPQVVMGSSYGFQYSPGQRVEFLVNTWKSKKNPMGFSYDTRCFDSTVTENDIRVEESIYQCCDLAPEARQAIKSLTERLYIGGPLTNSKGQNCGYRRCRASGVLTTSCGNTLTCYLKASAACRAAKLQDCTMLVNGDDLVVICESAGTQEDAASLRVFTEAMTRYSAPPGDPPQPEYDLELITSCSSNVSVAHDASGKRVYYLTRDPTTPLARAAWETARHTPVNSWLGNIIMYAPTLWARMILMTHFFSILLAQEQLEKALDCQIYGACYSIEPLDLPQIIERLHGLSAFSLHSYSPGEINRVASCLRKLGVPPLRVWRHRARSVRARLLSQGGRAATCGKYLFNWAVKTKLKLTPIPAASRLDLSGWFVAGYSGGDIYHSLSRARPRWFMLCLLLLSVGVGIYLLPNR

For `CC(C)N(C(=O)c1ccc(Cl)cc1Cl)c1cc(-c2nccs2)sc1C(=O)O` [Compound 449, 3-[(2,4-DICHLORO-BENZOYL)- ISOPROPYL-AMINO]-5-THIAZOL-2-YL- THIOPHENE-2-CARBOXYLIC ACID], the IC50 under setting [1] is less than 5 µM. The same measure, in the same setting: in the case of `CC(C)CC(=O)N(Cc1ccccc1Cl)c1cc(-c2ccccc2)sc1C(=O)O` [Compound 422, 3-[(2-CHLORO-BENZYL)-(3-METHYL- BUTYRYL)-AMINO]-5-PHENYL- THIOPHENE-2-CARBOXYLIC ACID] it was 5 to 20 µM. Take `Cc1ccc(S(=O)(=O)Nc2cc(-c3ccccc3)sc2C(=O)O)cc1` [Compound 13, 5-PHENYL-3-(TOLUENE-4-SULFONYLAMINO)-THIOPHENE-2-CARBOXYLIC ACID]: under setting [2], the IC50 is less than 5 µM. The same measure, in the same setting: in the case of `Cc1ccc(C(=O)N(C)c2cc(-c3cccc(N)c3)sc2C(=O)O)cc1` [Compound 271, 5-(3-AMINO-PHENYL)-3-[METHYL-(4-METHYL-BENZOYL)-AMINO]-THIOPHENE-2-CARBOXYLIC ACID] it was 5 to 20 µM. With `C=CCN(C(=O)CCC(C)C)c1cc(-c2ccccc2)sc1C(=O)O` [Compound 400, 3-[ALLYL-(4-METHYL-PENTANOYL)- AMINO]-5-PHENYL-THIOPHENE-2- CARBOXYLIC ACID], under setting [1], the IC50 fell in the range of 5 to 20 µM. Turning to `CC(C1CCNCC1)N(C(=O)c1ccc(Cl)cc1Cl)c1cc(-c2ccccc2)sc1C(=O)O` (stereo not shown) [Compound 529, 3-[(2,4-DICHLORO-BENZOYL)-(1- PIPERIDIN-4-YL-ETHYL)-AMINO]-5- PHENYL-THIOPHENE-2- CARBOXYLIC ACID; COMPOUND WITH TRIFLUORO-ACETIC ACID], under setting [1], the IC50 is less than 5 µM. With `O=C(O)c1sc(-c2ccccc2)cc1NC(=O)N1CCN(c2cccc(Cl)c2)CC1` [Compound 160, 3-{[4-(3-CHLORO-PHENYL)-PIPERAZINE-1-CARBONYL]-AMINO}-5-PHENYL-THIOPHENE-2-CARBOXYLIC ACID], under setting [2], the half-maximal inhibitory concentration (IC50) lay in the range of 5 to 20 µM. Consider `COc1ccc(-c2cc(N(C(=O)C3CCC(C)CC3)C(C)C)c(C(=O)O)s2)cc1` (stereo not shown) [Compound 577, 3-[ISOPROPYL-(4-METHYL- CYCLOHEXANECARBONYL)-AMINO]-5-(4- METHOXY-PHENYL)-THIOPHENE-2- CARBOXYLIC ACID], for which the concentration for half-maximal inhibition (IC50) under setting [1] was less than 5 µM. As for `Cc1ccccc1S(=O)(=O)Nc1cc(-c2ccc(C(=O)O)cc2)sc1C(=O)OC(C)(C)C` [Compound 239, 5-(4-CARBOXY-PHENYL)-3-(TOLUENE-2-SULFONYLAMINO)-THIOPHENE-2-CARBOXYLIC ACID TERT-BUTYL ESTER], the IC50 under setting [2] lay in the range of 5 to 20 µM. `CC(C)(C)c1ccc(CN(C(=O)C2CC2)c2cc(-c3ccccc3)sc2C(=O)O)cc1` [Compound 438, 3-[(4-TERT-BUTYL-BENZYL)- CYCLOPROPANECARBONYL-AMINO]-5- PHENYL-THIOPHENE-2-CARBOXYLIC ACID]: under setting [1], the IC50 is 5 to 20 µM. As for `Cc1nn(C)c(Cl)c1S(=O)(=O)Nc1cc(-c2ccccc2)sc1C(=O)O` [Compound 41, 3-(5-CHLORO-1,3-DIMETHYL-1H-PYRAZOLE-4-SULFONYLAMINO)-5-PHENYL-THIOPHENE-2-CARBOXYLIC ACID], under setting [2], the concentration for half-maximal inhibition (IC50) was in the range of 5 to 20 µM. The same measure, in the same setting: then `O=C(O)c1sc(-c2ccccc2)cc1NCc1ccc(Cl)cc1Cl` [Compound 48, 3-(2,4-DICHLORO-BENZYLAMINO)-5-PHENYL-THIOPHENE-2-CARBOXYLIC ACID], with less than 5 µM; and `Cc1ccc(C(=O)N(C)c2cc(-c3ccccc3)sc2C(=O)O)cc1[N+](=O)[O-]` [Compound 257, 3-[METHYL-(4-METHYL-3-NITRO-BENZOYL)-AMINO]-5-PHENYL-THIOPHENE-2-CARBOXYLIC ACID], with 5 to 20 µM; and `Cc1ccccc1S(=O)(=O)Nc1cc(-c2ccc(C(N)=O)cc2)sc1C(=O)O` [Compound 282, 5-(4-CARBAMOYL-PHENYL)-3-(TOLUENE-2-SULFONYLAMINO)-THIOPHENE-2-CARBOXYLIC ACID], with 5 to 20 µM.

In the case of `Cc1ccccc1S(=O)(=O)Nc1cc(-c2ccccc2O)sc1C(=O)O` [Compound 217, 5-(2-HYDROXY-PHENYL)-3-(TOLUENE-2-SULFONYLAMINO)-THIOPHENE-2-CARBOXYLIC ACID], the IC50 under setting [2] is 5 to 20 µM. Still for that read-out and setting: then `CN(C(=O)c1ccccc1Cl)c1cc(-c2ccccc2)sc1C(=O)O` [Compound 95, 3-[(2-CHLORO-BENZOYL)-METHYL-AMINO]-5-PHENYL-THIOPHENE-2-CARBOXYLIC ACID], with 5 to 20 µM; and `Cc1ccccc1S(=O)(=O)Nc1cc(-c2cc3ccccc3o2)sc1C(=O)O` [Compound 127, 5-BENZOFURAN-2-YL-3-(TOLUENE-2-SULFONYLAMINO)-THIOPHENE-2-CARBOXYLIC ACID], with less than 5 µM. On the same count and under the same terms, then `Cc1cccc(-c2cc(N(C(=O)c3ccc(Cl)cc3Cl)C(C)C)c(C(=O)O)s2)c1` [Compound 357, 3-[(2,4-DICHLORO-BENZOYL)- ISOPROPYL-AMINO]-5-M-TOLYL- THIOPHENE-2-CARBOXYLIC ACID], with less than 5 µM.

For `CN(C(=O)c1sc2ccccc2c1Cl)c1cc(-c2ccccc2)sc1C(=O)O` [Compound 256, 3-[(3-CHLORO-BENZO[B]THIOPHENE-2-CARBONYL)-METHYL-AMINO]-5-PHENYL-THIOPHENE-2-CARBOXYLIC ACID], under setting [2], the half-maximal inhibitory concentration (IC50) fell in the range of 5 to 20 µM. Consider `CC1CCC(C(=O)N(c2cc(-c3ccccc3)sc2C(=O)O)C(C)C)C(O)C1` (stereo not shown) [Compound 409, 3-[(2-HYDROXY-4-METHYL- CYCLOHEXANECARBONYL)-ISOPROPYL- AMINO]-5-PHENYL-THIOPHENE-2- CARBOXYLIC ACID], for which, under setting [1], the IC50 was less than 5 µM. `O=C(O)c1sc(-c2ccccc2)cc1NS(=O)(=O)c1cccc(C(F)(F)F)c1` [Compound 50, 5-PHENYL-3-(3-TRIFLUOROMETHYL-BENZENESULFONYLAMINO)-THIOPHENE-2-CARBOXYLIC ACID]: under setting [2], the 50% inhibitory concentration (IC50) was in the range of 5 to 20 µM. The same measure, in the same setting: then `Cc1ccc(C(=O)N(Cc2cccc(Cl)c2)c2cc(-c3ccccc3)sc2C(=O)O)cc1` [Compound 335, 3-[(3-CHLORO-BENZYL)-(4-METHYL- BENZOYL)-AMINO]-5-PHENYL- THIOPHENE-2-CARBOXYLIC ACID], with less than 5 µM; and `Cc1csc(C(=O)N(C)c2cc(-c3ccccc3)sc2C(=O)O)c1` [Compound 293, 3-[METHYL-(4-METHYL-THIOPHENE-2-CARBONYL)-AMINO]-5-PHENYL-THIOPHENE-2-CARBOXYLIC ACID], with 5 to 20 µM; and `Cc1ccc(C(=O)Nc2cc(-c3ccccc3)sc2C(=O)O)cc1` [Compound 92, 3-(4-METHYL-BENZOYLAMINO)-5-PHENYL-THIOPHENE-2-CARBOXYLIC ACID], with 5 to 20 µM.

As to `CC1CCC(C(=O)N(c2cc(-c3ccccc3)sc2C(=O)O)C(C)C)C(=O)C1` (stereo not shown) [Compound 513, 3-[ISOPROPYL-(4-METHYL-2-OXO- CYCLOHEXANECARBONYL)-AMINO]-5- PHENYL-THIOPHENE-2-CARBOXYLIC ACID], under setting [1], the IC50 is less than 5 µM. On the same count and under the same terms, in the case of `CC1CN(C(=O)OCc2ccccc2)CCC1N(C(=O)c1ccc(Cl)cc1Cl)c1cc(-c2ccccc2)sc1C(=O)O` (stereo not shown) [Compound 533, 4-[(2-CARBOXY-5-PHENYL-THIOPHEN-3- YL)-(2,4-DICHLORO-BENZOYL)-AMINO]-3- METHYL- PIPERIDINE-1-CARBOXYLIC ACID BENZYL ESTER] it was less than 5 µM. `CC(=O)c1ccc(-c2cc(NS(=O)(=O)c3ccc(C)cc3)c(C(=O)O)s2)cc1` [Compound 237, 5-(4-ACETYL-PHENYL)-3-(TOLUENE-4-SULFONYLAMINO)-THIOPHENE-2-CARBOXYLIC ACID]: under setting [2], the half-maximal inhibitory concentration (IC50) was less than 5 µM. Consider `CC1CCC(C(=O)N(c2cc(-c3cccc(C(F)(F)F)c3)sc2C(=O)O)C(C)C)CC1` (stereo not shown) [Compound 381, 3-[ISOPROPYL-(4-METHYL- CYCLOHEXANECARBONYL)-AMINO]-5-(3- TRIFLUOROMETHYL-PHENYL)- THIOPHENE-2-CARBOXYLIC ACID], for which the IC50 under setting [2] was less than 5 µM.

Consider `Cc1ccc(CN(C(=O)C2CCC2)c2cc(-c3ccccc3)sc2C(=O)O)cc1` [Compound 435, 3-[CYCLOBUTANECARBONYL-(4- METHYL-BENZYL)-AMINO]-5-PHENYL- THIOPHENE-2-CARBOXYLIC ACID], for which the half-inhibitory concentration (IC50) under setting [1] is less than 5 µM. On to `Cc1ccc(C(=O)N(c2cc(-c3cccc(C)c3)sc2C(=O)O)C(C)C)cc1` [Compound 305, 3-[ISOPROPYL-(4-METHYL-BENZOYL)- AMINO]-5-M-TOLYL-THIOPHENE-2- CARBOXYLIC ACID], for which, under setting [2], the IC50 is less than 5 µM. On the same count and under the same terms, in the case of `O=C(O)c1cc(S(=O)(=O)Nc2cc(-c3ccccc3)sc2C(=O)O)c(F)cc1Cl` [Compound 221, 3-(5-CARBOXY-4-CHLORO-2-FLUORO-BENZENESULFONYLAMINO)-5-PHENYL-THIOPHENE-2-CARBOXYLIC ACID] it was more than 20 µM; in that of `Cc1ccc(S(=O)(=O)Nc2cc(C(C)(C)C)sc2C(=O)O)c(C)c1` [Compound 315, 5-#TERT!-BUTYL-3-(2,4-DIMETHYL- BENZENESULFONYLAMINO)- THIOPHENE-2-CARBOXYLIC ACID], 5 to 20 µM; in that of `Cc1ccc(S(=O)(=O)Nc2cc(-c3ccc(F)cc3)sc2C(=O)O)cc1` [Compound 6, 5-(4-FLUORO-PHENYL)-3-(TOLUENE-4-SULFONYLAMINO)-THIOPHENE-2-CARBOXYLIC ACID], less than 5 µM. Still for that read-out and setting: in the case of `Cc1ccc(C(=O)N(Cc2ccccc2Cl)c2cc(-c3ccccc3)sc2C(=O)O)cc1` [Compound 345, 3-[(2-CHLORO-BENZYL)-(4-METHYL- BENZOYL)-AMINO]-5-PHENYL- THIOPHENE-2-CARBOXYLIC ACID] it was less than 5 µM; in that of `Cc1ccccc1S(=O)(=O)Nc1cc(-c2ccc(O)cc2)sc1C(=O)O` [Compound 190, 5-(4-HYDROXY-PHENYL)-3-(TOLUENE-2-SULFONYLAMINO)-THIOPHENE-2-CARBOXYLIC ACID], less than 5 µM; in that of `COc1ccc(-c2cc(NS(=O)(=O)c3ccc(C)cc3C)c(C(=O)O)s2)cc1` [Compound 361, 3-(2,4-DIMETHYL- BENZENESULFONYLAMINO)-5-(4- METHOXY-PHENYL)-THIOPHENE-2- CARBOXYLIC ACID], less than 5 µM. Consider `O=C(O)c1sc(-c2ccccc2)cc1N(Cc1ccccc1)C(=O)C1CCC1` [Compound 489, 3-(BENZYL-CYCLOBUTANECARBONYL- AMINO)-5-PHENYL-THIOPHENE-2- CARBOXYLIC ACID], for which the 50% inhibitory concentration (IC50) under setting [1] was less than 5 µM.
